# Test results published in patent US9113629B2, “4-amino-6-(4-substituted-phenyl)-picolinates and 6-amino-2-(4-substituted-phenyl)-pyrimidine-4-carboxylates and their use as herbicides” (DOW AGROSCIENCES LLC, priority 2013, dated 2015).
# Where two headings read alike, the source gives them in different places.
# Experiments:
# [1] = system: Key Broadleaf Weed and Crop Species; experiment: Post-emergent Test II herbicidal activity (Table 5); assay type: in vivo; details: post-emergence, 336 h, 14 days after application; for pest or weed control at 70 g/ha: application rate 70 g ai/ha; for pest or weed control at 140 g/ha: application rate 140 g ai/ha
# Method in brief: (§1)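 Foliar application at 187 L/ha to greenhouse-grown seedlings (first or second true leaf); subirrigation thereafter. Visual 0–100% injury at 14 d relative to untreated plants.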
# [2] = system: Key Grass and Sedge Weeds as well as Grass Crops; experiment: Post-emergent Test II herbicidal activity (Table 6); assay type: in vivo; details: post-emergence, 336 h
# Method in brief: as §1
# [3] = ABUTH: velvetleaf (Abutilon theophrasti), read-out: Visual Growth Reduction (%) 14 Days After Application, ABUTH
# [4] = AMARE: redroot pigweed (Amaranthus retroflexus), read-out: Visual Growth Reduction (%) 14 Days After Application, AMARE
# [5] = BRSNN: oilseed-rape, canola (Brassica napus), read-out: Visual Growth Reduction (%) 14 Days After Application, BRSNN
# [6] = CHEAL: lambsquarters (Chenopodium album), read-out: Visual Growth Reduction (%) 14 Days After Application, CHEAL
# [7] = EPHHL: wild poinsettia (Euphorbia heterophylla), read-out: Visual Growth Reduction (%) 14 Days After Application, EPHHL
# [8] = HELAN: sunflower (Helianthus annuus), read-out: Visual Growth Reduction (%) 14 Days After Application, HELAN
# [9] = VIOTR: wild pansy (Viola tricolor), read-out: Visual Growth Reduction (%) 14 Days After Application, VIOTR
compound,measurement,setting,value
"COC(=O)c1nc(-c2ccc(C(F)(F)F)c(F)c2)cc(N)c1Cl [Compound 29, methyl 4-amino-3-chloro-6-(3-fluoro-4-(trifluoromethyl)phenyl)picolinate]",pest or weed control at 70 g/ha,[1]; [3],85 to 94%
same,pest or weed control at 140 g/ha,[1]; [3],85 to 94%
same,pest or weed control at 70 g/ha,[1]; [4],60 to 74%
same,pest or weed control at 140 g/ha,[1]; [4],60 to 74%
same,pest or weed control at 70 g/ha,[1]; [5],45 to 59%
same,pest or weed control at 140 g/ha,[1]; [5],60 to 74%
same,pest or weed control at 70 g/ha,[1]; [6],95 to 100%
same,pest or weed control at 140 g/ha,[1]; [6],95 to 100%
same,pest or weed control at 70 g/ha,[1]; [7],95 to 100%
same,pest or weed control at 140 g/ha,[1]; [7],95 to 100%
same,pest or weed control at 70 g/ha,[1]; [8],85 to 94%
same,pest or weed control at 140 g/ha,[1]; [8],85 to 94%
same,pest or weed control at 70 g/ha,[1]; [9],0 to 29%
same,pest or weed control at 140 g/ha,[1]; [9],0 to 29%
same,pest or weed control at 70 g/ha,"[2]; Triticum aestivum, TRZSS (wheat), application rate 70 g ai/ha, read-out: Visual Growth Reduction (%) 14 Days After Application, TRZSS",0 to 29%
same,pest or weed control at 140 g/ha,"[2]; Triticum aestivum, TRZSS (wheat), application rate 140 g ai/ha, read-out: Visual Growth Reduction (%) 14 Days After Application, TRZSS",0 to 29%
same,pest or weed control at 70 g/ha,"[2]; CYPES: yellow nutsedge (Cyperus esculentus), application rate 70 g ai/ha, read-out: Visual Growth Reduction (%) 14 Days After Application, CYPES",30 to 44%
same,pest or weed control at 140 g/ha,"[2]; CYPES: yellow nutsedge (Cyperus esculentus), application rate 140 g ai/ha, read-out: Visual Growth Reduction (%) 14 Days After Application, CYPES",45 to 59%
same,pest or weed control at 70 g/ha,"[2]; DIGSA: crabgrass (Digitaria sanguinalis), application rate 70 g ai/ha, read-out: Visual Growth Reduction (%) 14 Days After Application, DIGSA",30 to 44%
same,pest or weed control at 140 g/ha,"[2]; DIGSA: crabgrass (Digitaria sanguinalis), application rate 140 g ai/ha, read-out: Visual Growth Reduction (%) 14 Days After Application, DIGSA",60 to 74%
same,pest or weed control at 70 g/ha,"[2]; ECHCG: barnyardgrass (Echinochloa crus-galli), application rate 70 g ai/ha, read-out: Visual Growth Reduction (%) 14 Days After Application, ECHCG",0 to 29%
same,pest or weed control at 140 g/ha,"[2]; ECHCG: barnyardgrass (Echinochloa crus-galli), application rate 140 g ai/ha, read-out: Visual Growth Reduction (%) 14 Days After Application, ECHCG",0 to 29%
same,pest or weed control at 70 g/ha,"[2]; ORYSA: rice (Oryza sativa), application rate 70 g ai/ha, read-out: Visual Growth Reduction (%) 14 Days After Application, ORYSA",0 to 29%
same,pest or weed control at 140 g/ha,"[2]; ORYSA: rice (Oryza sativa), application rate 140 g ai/ha, read-out: Visual Growth Reduction (%) 14 Days After Application, ORYSA",0 to 29%
same,pest or weed control at 70 g/ha,"[2]; SETFA: giant foxtail (Setaria faberi), application rate 70 g ai/ha, read-out: Visual Growth Reduction (%) 14 Days After Application, SETFA",0 to 29%
same,pest or weed control at 140 g/ha,"[2]; SETFA: giant foxtail (Setaria faberi), application rate 140 g ai/ha, read-out: Visual Growth Reduction (%) 14 Days After Application, SETFA",0 to 29%
same,pest or weed control at 70 g/ha,"[2]; SORVU: grain sorghum (Sorghum vulgare), application rate 70 g ai/ha, read-out: Visual Growth Reduction (%) 14 Days After Application, SORVU",45 to 59%
same,pest or weed control at 140 g/ha,"[2]; SORVU: grain sorghum (Sorghum vulgare), application rate 140 g ai/ha, read-out: Visual Growth Reduction (%) 14 Days After Application, SORVU",45 to 59%
same,pest or weed control at 70 g/ha,"[2]; ZEAMX: maize, corn (Zea mays), application rate 70 g ai/ha, read-out: Visual Growth Reduction (%) 14 Days After Application, ZEAMX",0 to 29%
same,pest or weed control at 140 g/ha,"[2]; ZEAMX: maize, corn (Zea mays), application rate 140 g ai/ha, read-out: Visual Growth Reduction (%) 14 Days After Application, ZEAMX",0 to 29%
same,melting point,,145 to 146 °C
"Nc1c(F)c(-c2ccc([N+](=O)[O-])cc2)nc(C(=O)O)c1Cl [Compound 31, 4-amino-3-chloro-5-fluoro-6-(4-nitrophenyl)picolinic acid]",pest or weed control at 70 g/ha,[1]; [3],0 to 29%
same,pest or weed control at 140 g/ha,[1]; [3],0 to 29%
same,pest or weed control at 70 g/ha,[1]; [4],95 to 100%
same,pest or weed control at 140 g/ha,[1]; [4],95 to 100%
same,pest or weed control at 70 g/ha,[1]; [5],30 to 44%
same,pest or weed control at 140 g/ha,[1]; [5],45 to 59%
same,pest or weed control at 70 g/ha,[1]; [6],60 to 74%
same,pest or weed control at 140 g/ha,[1]; [6],85 to 94%
same,pest or weed control at 70 g/ha,[1]; [7],0 to 29%
same,pest or weed control at 140 g/ha,[1]; [7],0 to 29%
same,pest or weed control at 70 g/ha,[1]; [8],95 to 100%
same,pest or weed control at 140 g/ha,[1]; [8],95 to 100%
same,pest or weed control at 70 g/ha,[1]; [9],0 to 29%
same,pest or weed control at 140 g/ha,[1]; [9],0 to 29%
same,pest or weed control at 70 g/ha,"[2]; CYPES: yellow nutsedge (Cyperus esculentus), 70 g ai/ha, read-out: Visual Growth Reduction (%) 14 Days After Application, CYPES",0 to 29%
same,pest or weed control at 140 g/ha,"[2]; CYPES: yellow nutsedge (Cyperus esculentus), 140 g ai/ha, read-out: Visual Growth Reduction (%) 14 Days After Application, CYPES",0 to 29%
same,pest or weed control at 70 g/ha,"[2]; DIGSA: crabgrass (Digitaria sanguinalis), 70 g ai/ha, read-out: Visual Growth Reduction (%) 14 Days After Application, DIGSA",60 to 74%
same,pest or weed control at 140 g/ha,"[2]; DIGSA: crabgrass (Digitaria sanguinalis), 140 g ai/ha, read-out: Visual Growth Reduction (%) 14 Days After Application, DIGSA",60 to 74%
same,pest or weed control at 70 g/ha,"[2]; ECHCG: barnyardgrass (Echinochloa crus-galli), 70 g ai/ha, read-out: Visual Growth Reduction (%) 14 Days After Application, ECHCG",75 to 84%
same,pest or weed control at 140 g/ha,"[2]; ECHCG: barnyardgrass (Echinochloa crus-galli), 140 g ai/ha, read-out: Visual Growth Reduction (%) 14 Days After Application, ECHCG",85 to 94%
same,pest or weed control at 70 g/ha,"[2]; ORYSA: rice (Oryza sativa), crop, 70 g ai/ha, read-out: Visual Growth Reduction (%) 14 Days After Application, ORYSA",0 to 29%
same,pest or weed control at 140 g/ha,"[2]; ORYSA: rice (Oryza sativa), crop, 140 g ai/ha, read-out: Visual Growth Reduction (%) 14 Days After Application, ORYSA",0 to 29%
same,pest or weed control at 70 g/ha,"[2]; SETFA: giant foxtail (Setaria faberi), 70 g ai/ha, read-out: Visual Growth Reduction (%) 14 Days After Application, SETFA",0 to 29%
same,pest or weed control at 140 g/ha,"[2]; SETFA: giant foxtail (Setaria faberi), 140 g ai/ha, read-out: Visual Growth Reduction (%) 14 Days After Application, SETFA",0 to 29%
same,pest or weed control at 70 g/ha,"[2]; SORVU: grain sorghum (Sorghum vulgare), 70 g ai/ha, read-out: Visual Growth Reduction (%) 14 Days After Application, SORVU",0 to 29%
same,pest or weed control at 140 g/ha,"[2]; SORVU: grain sorghum (Sorghum vulgare), 140 g ai/ha, read-out: Visual Growth Reduction (%) 14 Days After Application, SORVU",0 to 29%
same,pest or weed control at 70 g/ha,"[2]; TRZSS (wheat, Triticum aestivum), crop, 70 g ai/ha, read-out: Visual Growth Reduction (%) 14 Days After Application, TRZSS",0 to 29%
same,pest or weed control at 140 g/ha,"[2]; TRZSS (wheat, Triticum aestivum), crop, 140 g ai/ha, read-out: Visual Growth Reduction (%) 14 Days After Application, TRZSS",0 to 29%
same,pest or weed control at 70 g/ha,"[2]; ZEAMX: maize, corn (Zea mays), crop, 70 g ai/ha, read-out: Visual Growth Reduction (%) 14 Days After Application, ZEAMX",0 to 29%
same,pest or weed control at 140 g/ha,"[2]; ZEAMX: maize, corn (Zea mays), crop, 140 g ai/ha, read-out: Visual Growth Reduction (%) 14 Days After Application, ZEAMX",0 to 29%
same,melting point,,180 to 181 °C
